Structures are written as SMILES. Read-outs that look alike come from different tables or passages of the source.

Data on three molecules can be found in patent publication US20250243174A1, “ANTITUMORAL COMPOUNDS” (PHARMA MAR, S.A., priority 2021, published 2025).

The nature of series [1]: MTD (Maximum Tolerated Dose) determination. To be noted: Athymic Nude-Fox1 nu/nu, mouse, in vivo; iv, single dose; female athymic nude mice. As for the experimental part:
Female Athymic Nude-Fox1 nu/nu mice (Envigo) were utilized for all experiments. Animals (N=10/cage) were housed in individually ventilated cages (Sealsafe Plus®, Techniplast S.P.A.), on a 12-hour light-dark cycle at 21-23° C. and 40-60% humidity. Mice were allowed free access to irradiated standard rodent diet (Tecklad 2914C) and sterilized water. Animals were acclimated for five days prior to being individually tattoo-identified. Animal protocols were reviewed and approved according to the regional Institutional Animal Care and Use Committees.
Mice were randomly allocated into experimental groups and intravenously administered, once for the MTD (Maximum Tolerated Dose) determination or one administration a week during three consecutive weeks, for the MTMD (Maximum Tolerated Multiple Dose) determination study. The animals were administered with white formulation or with compound dissolved in the experimental formulation at different concentrations. The volume administered was always 10 mL/kg. Once administered, animals were monitored for clinical signs of systemic toxicity, changes in body weight and mortality up to 14 days after the administration.

Another series deals with PSN-1. The series can be described thus: SRB colorimetric cytotoxicity assay, PSN-1. The note with it: Homo sapiens, read-out: GI50 (M) PSN-1. The series is classed as cell-based. From the text: The aim of this assay is to evaluate the in vitro cytostatic (ability to delay or arrest tumor cell growth) or cytotoxic (ability to kill tumor cells) activity of the samples being tested.
A colorimetric assay, using sulforhodamine B (SRB) reaction has been adapted to provide a quantitative measurement of cell growth and viability (using the technique developed by Skehan et al., J. Natl. Cancer Inst. 1990 and following the protocol detailed in V. Vichai and K. Kirtikara (2006) Nature Protoc. 1, 1112-1116.)
This form of assay employs 96-well cell culture microplates. All the cell lines used in this study were obtained from the American Type Culture Collection (ATCC), unless otherwise indicated, and derive from different types of human cancer.
Cells were maintained in Dulbecco's Modified Eagle Medium (DMEM) (for A549, HT-29 and MDA-MB-231) or RPMI (for PSN-1) supplemented with 10% Fetal Bovine Serum (FBS), 2 mM L-glutamine, 100 U/mL penicillin and 100 U/mL streptomycin at 37° C., 5% CO2 and 98% humidity. For the experiments, cells were harvested from subconfluent cultures using trypsinization and resuspended in fresh medium before counting and plating.
Cells were seeded in 96 well microtiter plates, at 5×10^3 cells per well in aliquots of 150 μL, and allowed to attach to the plate surface for 18 hours (overnight) in drug free medium. After that, one control (untreated) plate of each cell line was fixed (as described below) and used for time zero reference value. Culture plates were then treated with test compounds (50 μL aliquots of 4× concentrated compound stock solutions made in complete culture medium) using ten serial dilutions (concentrations ranging from […]) and triplicate cultures (final concentration of DMSO being 1%). After 72 hours treatment, the antitumor effect was measured by using the SRB methodology: Briefly, cells were washed twice with PBS, fixed for 15 min in 1% glutaraldehyde solution at room temperature, rinsed twice in PBS, and stained in 0.4% SRB solution for 30 min at room temperature. Cells were then rinsed several times with 1% acetic acid solution and air-dried at room temperature. SRB was then extracted in 10 mM trizma base solution and the absorbance measured in an automated spectrophotometric plate reader at 490 nm. Effects on cell growth and survival were estimated by applying the NCI algorithm (Boyd M R and Paull K D. Drug Dev. Res. 1995, 34, 91-104).
Using the mean±SD of triplicates, a dose-response curve was automatically generated using nonlinear regression analysis to a 4-parameter logistic curve. Three reference parameters were calculated (NCI algorithm) by automatic interpolation: GI50=compound concentration that produces […] cell growth inhibition, as compared to control cultures.

Take `COC1=CC[C@@H]([C@@H](C)/C=C(C)/C=C\C=C/C(=O)N[C@H](C(=O)N/C=C\C[C@H](C/C=C(\C)F)OC(N)=O)C(C)(C)C)OC1=O` [Compound 2]: in series [1], the MTD (commonly the largest dose that counted as tolerated) at 14 days came out at 2 mg/kg. The GI50 (in general, the concentration that inhibits growth by half) in the series on PSN-1 (PSN1, 72 h) was found to be 2.27e-11 M.

In series [1], `COC1=CC[C@@H]([C@@H](C)/C=C(C)/C=C\C=C/C(=O)N[C@H](C(=O)N/C=C\C[C@H](CC=C(C)C)OC(N)=O)C(C)(C)C)OC1=O` [Compound 3] gave a maximal tolerated dose (MTD) at 14 days of 1 mg/kg. The GI50 in the series with PSN-1 (PSN1, 72 h) turned out to be 1.43e-10 M.

Molecule `C/C=C\C[C@@H](C/C=C\NC(=O)[C@@H](NC(=O)\C=C/C=C\C(C)=C\[C@H](C)[C@@H]1CC=C(OC)C(=O)O1)C(C)(C)C)OC(N)=O` [PM060184, reference compound] gave an MTD in series [1] of 16 mg/kg. Also, the GI50 with PSN-1 (PSN1, 72 hours treatment, SRB) amounted to 1.87e-10 M.
